In patent publication US20250099405A1, “COMPOSITIONS, METHODS, AND DEVELOPMENT OF ARID4B INHIBITORS” (University of Kentucky Research Foundation, priority 2022, published 2025):

How the values were obtained:
[1] = Plasma stability, incubation with mouse blood plasma, LC-MS; type: in vitro ADME; conditions: over the 24 h period, equivalent of 50 mg/kg
Experimental: Representative HE images of liver and spleen from mice treated with vehicle or ARD150. Images from vehicle and the highest doses of ARD150 (125 mg/kg) were shown (B). […] Three biological replicates for each time point.
The potential toxicity of RWR-18 was tested using 9-week-old Balb/c female mice. The mice were injected (i.p.) with vehicle or 10 mg/kg, 25 mg/kg, and 50 mg/kg of RWR-18 (daily for 7 days, 3 mice/group). The body weight was measured daily for 21 days. The liver, spleen, heart, lung, and kidney were collected for macroscopic and histological examination. […] Preliminary plasma kinetic studies were performed. Following the incubation of the equivalent of 50 mg/kg of RWR-18 with blood plasma from mice at 10 min, 30 min, 1 h, 4 h, 16 h, and 24 h, we measured the plasma levels of RWR-18 by LC-MS.

[2] = molecular target: T1, ARID4B binding to H3K4me3 (Homo sapiens, UniProt Q4LE39); test: Histone peptide binding assay; conditions: His-ARID4B pre-incubated with compound
T1 construct: His; made in house; host or cells: Sf9
T1 sequence (Q4LE39 1-1312): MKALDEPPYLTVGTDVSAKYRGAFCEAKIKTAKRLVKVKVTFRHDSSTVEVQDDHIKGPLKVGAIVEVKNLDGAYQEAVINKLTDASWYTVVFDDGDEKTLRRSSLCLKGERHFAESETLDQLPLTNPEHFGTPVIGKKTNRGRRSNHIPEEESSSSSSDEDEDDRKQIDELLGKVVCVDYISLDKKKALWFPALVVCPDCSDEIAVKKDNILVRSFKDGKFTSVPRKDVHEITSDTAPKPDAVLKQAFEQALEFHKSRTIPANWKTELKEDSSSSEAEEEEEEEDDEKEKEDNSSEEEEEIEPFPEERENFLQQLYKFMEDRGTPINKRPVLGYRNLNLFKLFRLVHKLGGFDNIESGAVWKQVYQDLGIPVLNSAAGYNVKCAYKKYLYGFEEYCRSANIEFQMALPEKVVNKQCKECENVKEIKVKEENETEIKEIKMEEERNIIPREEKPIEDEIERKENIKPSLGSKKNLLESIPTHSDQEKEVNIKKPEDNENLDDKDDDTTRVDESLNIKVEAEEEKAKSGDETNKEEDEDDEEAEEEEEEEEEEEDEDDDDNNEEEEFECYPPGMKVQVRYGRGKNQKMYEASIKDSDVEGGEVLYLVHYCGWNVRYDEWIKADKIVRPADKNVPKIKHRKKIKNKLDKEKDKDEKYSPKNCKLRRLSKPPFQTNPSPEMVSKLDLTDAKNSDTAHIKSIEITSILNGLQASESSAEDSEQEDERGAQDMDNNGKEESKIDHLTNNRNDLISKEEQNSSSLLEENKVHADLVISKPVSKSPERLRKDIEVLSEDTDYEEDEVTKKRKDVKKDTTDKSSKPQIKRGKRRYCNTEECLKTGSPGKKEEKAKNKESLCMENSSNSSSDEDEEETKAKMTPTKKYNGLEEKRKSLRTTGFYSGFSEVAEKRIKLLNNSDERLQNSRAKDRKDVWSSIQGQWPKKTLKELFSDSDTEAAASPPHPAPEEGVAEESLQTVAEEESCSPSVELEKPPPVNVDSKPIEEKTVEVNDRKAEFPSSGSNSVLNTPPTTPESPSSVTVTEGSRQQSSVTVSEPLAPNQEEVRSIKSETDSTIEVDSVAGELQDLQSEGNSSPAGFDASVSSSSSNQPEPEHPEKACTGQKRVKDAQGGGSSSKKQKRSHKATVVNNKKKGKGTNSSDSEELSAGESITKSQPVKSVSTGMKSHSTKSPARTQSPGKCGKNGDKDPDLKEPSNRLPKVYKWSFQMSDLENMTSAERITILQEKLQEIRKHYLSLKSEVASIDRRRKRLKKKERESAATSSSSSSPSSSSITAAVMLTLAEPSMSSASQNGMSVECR
Experimental: His-ARID4B was pre-incubated with RWR-18 as indicated followed by histone peptide binding assays.
Histone peptide binding assays were used to determine that ARID4B binds to which methylated lysine. Full-length His-ARID4B and deletion mutants expressed in Sf9 were purified by Ni-NTA affinity resin (FIG. 20A). To determine which methylated lysine ARID4B binds, full-length His-ARID4B was incubated with biotinylated histone H3 peptides tri-methylated at the K4, K9, K27, K36 or K79. The corresponding unmethylated H3 peptides were used as controls ([…]). […] Next, the ARID4B deletion mutants were used to determine domain(s) of ARID4B responsible for binding to H3K4me3. Deletion of Tudor and chromo domains impaired binding to H3K4me3 (FIG. 20C, compare lanes 3, 4, and 7).
Since RWR-18 targets the chromodomain of ARID4B, which is important for binding to H3K4me3 (FIG. 20), it was tested whether RWR-18 interferes with binding of H3K4me3 using histone peptide binding assays as described above.

ARID4B = molecular target: T2, ARID4B (Homo sapiens, UniProt Q4LE39); test: Cellular thermal shift assay (CETSA), endogenous ARID4B in MCF7 cells; type: cell-based; conditions: 10 μM, 2 h, 49-52° C. without compound
T2 construct: endogenous in cells; host or cells: MCF7
T2 sequence (Q4LE39 1-1312): T1 sequence (Q4LE39 1-1312)
Experimental: (B-C) show cells expressing HA-ARID4B (C) or HA-ARID4BIC (D) treated or not with ARD150 (10 μM) for 2 h were used for CESTA. […] (D-E) show cells expressing HA-ARID4B (D) or Flag-ARID4A (E) treated or not with RWR-18 (10 μM) for 2 h were used for CESTA. […] Data are means±SEM from three experiments. *P<0.05, **P<0.01, ns, not significant.
Using CETSA (cellular thermal shift assay) to examine whether ARD150 or RWR-18 binds to ARID4B, MCF7 cells treated or not with ARD150 or RWR-18 for 2 h were collected, followed by heating at 46, 49, 52, 55, and 58° C. to denature and precipitate ARID4B protein, cell lysis, removal of cell debris and aggregates by centrifugation, and finally detection of remaining thermostable ARID4B protein by western blot. The ARID4B aggregation temperatures without ARD150 were determined to be 49-52° C., but shifted to 52-55° C. after treatment with ARD150 and even more so with RWR-18 (FIG. 15A-D). To determine whether ARD150 and RWR-18 targets the chromodomain of ARID4B, CESTA was performed using chromodomain deletion mutant (ARID4BAC). HEK-293T cells expressing HA-ARID4B or HA-ARID4BAC were treated or not with ARD150 (10 μM) for 2 h and processed for CESTA.

Compound | reduction in peak area in mouse blood plasma [1] | binding of ARID4B to H3K4me3 [2] | ARID4B aggregation temperatures (ARID4B)
O=C(COc1ccc(OCc2ccccc2)cc1)NCCCN1CCOCC1 [RWR-18] | ~20% | inhibited | –
COc1ccc(C(=O)NCCCN2CCOCC2)cc1OC [ARD150] | – | – | 52-55 °C
